Source: the supplement of paper PMC5908809

Assays:
NK-92 (IL-2 2.5 ng/mL) [1] = assay: percent inhibition of viability; higher = more inhibition; conditions: 72 h
YT (IL-2 2.5 ng/mL) [2] = assay: as above; conditions: 72 h
DERL-7 (IL-2 2.5 ng/mL) [3] = assay: as above; conditions: 72 h
NKL (IL-2 2.5 ng/mL) [4] = assay: as above; conditions: 72 h
IMC-1 (IL-2 20 ng/mL) [5] = assay: as above; conditions: 72 h
[6] = system: normal primary NK cells, pool 1 (3 donors) (IL-2 2.5 ng/mL); assay: as above; conditions: 72 h
[7] = system: normal primary NK cells, pool 2 (3 donors) (IL-2 2.5 ng/mL); assay: as above; conditions: 72 h
NK-YS (IL-2 2.5 ng/mL) [8] = assay: as above; conditions: 72 h
KHYG-1 (IL-2 2.5 ng/mL) [9] = assay: as above; conditions: 72 h
[10] = system: normal primary NK cells, pool 1 (3 donors), resting (IL-2 0 ng/mL); assay: as above; conditions: 72 h
[11] = system: normal primary NK cells, pool 3 (3 donors) (IL-2 2.5 ng/mL); assay: as above; conditions: 72 h
SNK-6 (IL-2 2.5 ng/mL) [12] = assay: as above; conditions: 72 h
KAI3 (IL-2 2.5 ng/mL) [13] = assay: as above; conditions: 72 h
[14] = system: normal NK cells expanded with K562-aAPC; assay: drug sensitivity score (DSS) (DSS units); higher = more sensitive; extreme values may be limits of the assay; conditions: 72 h; IL-2 2.5 ng/mL
Method: (§1)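 Drug sensitivity and resistance testing on K562-aAPC-expanded normal NK cells: 5 concentrations (10-fold steps over a 10,000-fold range), 72 h at 37 °C, viability by CellTiter-Glo normalised to DMSO and benzethonium chloride controls; DSS from the fitted curve.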

NK-92 (IL-2 2.5 ng/mL) [15] = assay: as above; conditions: 72 h
YT (IL-2 2.5 ng/mL) [16] = assay: as above; conditions: 72 h
DERL-7 (IL-2 2.5 ng/mL) [17] = assay: as above; conditions: 72 h
NKL (IL-2 2.5 ng/mL) [18] = assay: as above; conditions: 72 h
IMC-1 (IL-2 20 ng/mL) [19] = assay: as above; conditions: 72 h
[20] = system: normal primary NK cells, pool 1 (3 donors) (IL-2 2.5 ng/mL); assay: as above; conditions: 72 h
[21] = system: normal primary NK cells, pool 2 (3 donors) (IL-2 2.5 ng/mL); assay: as above; conditions: 72 h
NK-YS (IL-2 2.5 ng/mL) [22] = assay: as above; conditions: 72 h
KHYG-1 (IL-2 2.5 ng/mL) [23] = assay: as above; conditions: 72 h
[24] = system: normal primary NK cells, pool 1 (3 donors), resting (IL-2 0 ng/mL); assay: as above; conditions: 72 h
[25] = system: normal primary NK cells, pool 3 (3 donors) (IL-2 2.5 ng/mL); assay: as above; conditions: 72 h
SNK-6 (IL-2 2.5 ng/mL) [26] = assay: as above; conditions: 72 h
KAI3 (IL-2 2.5 ng/mL) [27] = assay: as above; conditions: 72 h
[28] = system: normal NK cells expanded with K562-aAPC; assay: percent inhibition of viability; higher = more inhibition; conditions: 72 h, IL-2 2.5 ng/mL
Method: as §1

Cc1cc(C)c(/C=C2\C(=O)Nc3ccccc32)[nH]1 [Semaxanib] (max concentration tested 10000 nM)
percent inhibition of viability [%]
Conditions | 1 nM | 10 nM | 100 nM | 1000 nM | 10000 nM
DERL-7 (IL-2 2.5 ng/mL) [3] | -12.8 | -10.6 | -9.72 | -14.2 | -12.3
IMC-1 (IL-2 20 ng/mL) [5] | -3.23 | 1.84 | -5.66 | -0.69 | -8.53
KAI3 (IL-2 2.5 ng/mL) [13] | -2.48 | -0.88 | 2.8 | 17.6 | 4.62
KHYG-1 (IL-2 2.5 ng/mL) [9] | -1.36 | 0.11 | 0.12 | 6.34 | 1.2
NK-92 (IL-2 2.5 ng/mL) [1] | -9.95 | -0.12 | 2.69 | -5.85 | -9.23
NK-YS (IL-2 2.5 ng/mL) [8] | -0.44 | 2.71 | 2.82 | 11.1 | 7.36
NKL (IL-2 2.5 ng/mL) [4] | -13.9 | -12.4 | -11.4 | -6.8 | -21.5
SNK-6 (IL-2 2.5 ng/mL) [12] | 11.5 | 16.6 | -2.4 | -25 | -71.7
YT (IL-2 2.5 ng/mL) [2] | 1.76 | -2.52 | 0.26 | 5.87 | -1.2
[6] | -10.6 | -9.74 | -0.67 | -9.25 | -0.4
[7] | -8.9 | -5 | -12.5 | -15.6 | 0.7
[10] | -26.7 | -24.9 | -16.6 | -29.6 | -4.81
[11] | -10.1 | -7.93 | -13.2 | -15.4 | -11
[28] | -3.94 | -4.89 | -0.87 | -2.28 | -6.44

Conditions | drug sensitivity score
DERL-7 (IL-2 2.5 ng/mL) [17] | 0
IMC-1 (IL-2 20 ng/mL) [19] | 0
KAI3 (IL-2 2.5 ng/mL) [27] | 0.08
KHYG-1 (IL-2 2.5 ng/mL) [23] | 0
NK-92 (IL-2 2.5 ng/mL) [15] | 0
NK-YS (IL-2 2.5 ng/mL) [22] | 0.03
NKL (IL-2 2.5 ng/mL) [18] | 0
SNK-6 (IL-2 2.5 ng/mL) [26] | 0
YT (IL-2 2.5 ng/mL) [16] | 0
[14] | 0
[20] | 0
[21] | 0
[24] | 0
[25] | 0
